Test results as given in patent publication US7972800B2, “Screening method for binding property or signal transduction alterations” (Takeda Pharmaceutical Company Limited, priority 2003, dated 2011).

Tests used:
[1] = test system: mock cells where GPR39 was not expressed; details: Cytosensor, mock cells where GPR39 was not expressed (FIG. 8)
Experimental: (§1) Activation of the intracellular signal transduction system by ligands using a Cytosensor was determined in terms of the pH changes by metabolism of cells as an indicator.
(§2) The procedures were as follows. On the previous day, the human GPR39-expressing CHO cell line was cultured in a culture flask to reach a confluent state. After washing with PBS (Invitrogen Corp.), the cells were scraped off using trypsin (Invitrogen Corp.) and centrifuged for recovery. The cells were then suspended in medium and the suspension was adjusted to 3×10^5 cells/ml. The capsule of Cytosensor capsule kit (Molecular Device) was placed on a 12-well plate (Costar) and 1 ml of the cell suspension was charged therein. After covering with the lid, the cells were incubated at 37° C. in an incubator until next day. On the day when the assay was conducted, Cytosensor was activated as instructed by the protocol. Then, RPMI1640 medium (pH 7.4) (Invitrogen Corp.) for Cytosensor was prepared and equilibrated. The spacer was then placed in the capsule where the cells prepared on the previous day were seeded, and the capsule was set on Cytosensor. After equilibration with the medium, a sample was added to the cells by switching the flow path and pH changes were determined.

[2] = target: T1, human GPR39 (Homo sapiens, UniProt O43194); details: Cytosensor, CHO/hGPR39 (FIG. 8)
T1 sequence (O43194 1-453): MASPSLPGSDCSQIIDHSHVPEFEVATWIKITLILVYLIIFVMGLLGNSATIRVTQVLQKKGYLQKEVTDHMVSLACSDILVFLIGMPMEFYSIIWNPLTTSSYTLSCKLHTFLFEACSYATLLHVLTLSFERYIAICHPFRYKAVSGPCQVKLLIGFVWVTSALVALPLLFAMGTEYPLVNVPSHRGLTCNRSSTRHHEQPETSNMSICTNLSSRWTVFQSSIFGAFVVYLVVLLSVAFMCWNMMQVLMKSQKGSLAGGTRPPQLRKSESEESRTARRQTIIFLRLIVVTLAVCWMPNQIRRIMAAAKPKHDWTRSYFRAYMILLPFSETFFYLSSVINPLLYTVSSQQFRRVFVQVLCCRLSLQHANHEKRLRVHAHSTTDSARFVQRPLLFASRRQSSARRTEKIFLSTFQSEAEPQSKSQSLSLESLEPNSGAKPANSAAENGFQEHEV
Experimental: as §1, §2

[3] = target: TGR7 (Homo sapiens, UniProt Q8TDS7); details: Cytosensor, TGR7-expressed cells (FIG. 8)
Chain of TGR7 (Q8TDS7 whole entry): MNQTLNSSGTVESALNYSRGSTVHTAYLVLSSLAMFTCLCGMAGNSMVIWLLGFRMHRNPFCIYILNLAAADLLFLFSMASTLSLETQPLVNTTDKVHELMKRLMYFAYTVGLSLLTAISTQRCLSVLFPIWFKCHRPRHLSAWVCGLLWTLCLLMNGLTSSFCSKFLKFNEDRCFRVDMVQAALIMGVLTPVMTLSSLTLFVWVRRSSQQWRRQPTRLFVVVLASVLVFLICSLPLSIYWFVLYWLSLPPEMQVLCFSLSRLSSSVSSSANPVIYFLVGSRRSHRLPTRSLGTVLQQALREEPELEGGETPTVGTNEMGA
Experimental: as §1, §2

[4] = test system: UM-UC-3; details: FLIPR
Experimental: (§3) On the day when the assay was conducted, various test samples were added to the cells and the changes of intracellular calcium levels in this case were determined by FLIPR (Molecular Device). In order to determine the changes in intracellular calcium levels on FLIPR, the cells were pre-treated by the following procedures. First, for the purpose of adding a fluorescent dye Fluo-3AM (DOJIN) to the cells or washing the cells immediately before the FLIPR assay, an assay buffer was prepared. A solution was prepared by adding 20 ml of 1M HEPES (pH 7.4) (DOJIN) to 1000 ml of HBSS (Invitrogen Corp.) (hereinafter HBSS/HEPES solution), to which solution was added 10 ml of a solution mixture obtained by dissolving 710 mg of Probenecid (Sigma) in 5 ml of 1N NaOH and further adding 5 ml of HBSS/HEPES solution thereto. The resulting solution was used as the assay buffer. Next, 50 μg of Fluo-3AM was dissolved in 21 μl of DMSO (DOJIN) and an equal volume of 20% Pluronic acid (Molecular Probes) was added to and mixed with the solution. The mixture was then added to 10.6 ml of the assay buffer supplemented with 105 μl of fetal calf serum to prepare a fluorescent dye solution. The medium for the CHO cells where human GPR39 was stably expressed was removed. […] Following the pre-treatment above, the changes in intracellular calcium levels after the addition of each test sample were determined by FLIPR. […]

[5] = test system: HT-1197; details: FLIPR
Experimental: as §3

[6] = test system: rat GPR39; type: cell-based; details: FLIPR, Fluo-3AM (FIG. 9 through FIG. 13)
Experimental: Using the CHO cell line where rat GPR39 was stably expressed, the agonist activity of metal ions was detected using FLIPR in terms of the intracellular calcium-increasing reaction as an indicator. The CHO cell line used, wherein rat GPR39 was stably expressed, was cultured in HAM's αMEM (Invitrogen Corp.) containing 10% calf fetal serum (Invitrogen Corp.). On the day before the assay was conducted, the human GPR39-expressing CHO cell line was cultured in a culture flask to reach a confluent state. After washing with PBS, the cells were scraped off using trypsin and centrifuged for recovery. The cells were then suspended in medium and the suspension was adjusted to 3×10^5 cells/ml. Then, the suspension was dispensed onto a black walled 96-well plate (Costar) in 100 μl each per well, followed by incubation overnight in a CO2 incubator.
On the day when the assay was conducted, various test samples were added to the cells and the changes of intracellular calcium levels in this case were determined by FLIPR (Molecular Device). In order to determine the changes in intracellular calcium levels on FLIPR, the cells were pre-treated by the following procedures. First, for the purpose of adding a fluorescent dye Fluo-3AM (DOJIN) to the cells or washing the cells immediately before the FLIPR assay, an assay buffer was prepared. A solution was prepared by adding 20 ml of 1M HEPES (pH 7.4) (DOJIN) to 1000 ml of HBSS (Invitrogen Corp.) (hereinafter HBSS/HEPES solution), to which solution was added 10 ml of a solution mixture obtained by dissolving 710 mg of Probenecid (Sigma) in 5 ml of 1N NaOH and further adding 5 ml of HBSS/HEPES solution thereto. The resulting solution was used as the assay buffer. Next, 50 μg of Fluo-3AM was dissolved in 21 μl of DMSO (DOJIN) and an equal volume of 20% Pluronic acid (Molecular Probes) was added to and mixed with the solution. The mixture was then added to 10.6 ml of the assay buffer supplemented with 105 μl of fetal calf serum to prepare a fluorescent dye solution. The medium for the CHO cells where human GPR39 was stably expressed was removed. Immediately thereafter, the fluorescent dye solution was dispensed in 100 μl each/well and the cells were incubated in a CO2 incubator for an hour so that the fluorescent dye was taken up into the cells. The cells after the incubation was washed with the assay buffer described above and set on FLIPR. A test sample to be added to the CHO cells where rat GPR39 was stably expressed was prepared using the assay buffer and set on FLIPR at the same time. Following the pre-treatment above, the changes in intracellular calcium levels after the addition of each test sample were determined by FLIPR.

[Cl][Ni][Cl] [nickel chloride]
cell response (pH change) in mock cells [1]: any response was not detected
cell response (pH change, acidification rate) in GPR39-expressed cells [2]: a cell response specific to nickel was detected
cell response (pH change) in other receptor TGR7 cells [3]: any response was not detected
reaction (change in intracellular calcium levels) in UM-UC-3 [4]: a reaction with nickel was detected
reaction (change in intracellular calcium levels) in HT-1197 [5]: a reaction with nickel was detected
intracellular calcium levels of CHO/rGPR39 [6]: dose-dependently increased

[Cl][Cu][Cl] [copper chloride]
intracellular calcium levels of CHO/rGPR39 [6]: dose-dependently increased
